Assay results published in ChEMBL document CHEMBL1201862, “PubChem BioAssay data set” (2004).
Calls of active or inactive are those of the source.

Experiments:
Type in all cases: functional
Protein RecA = target: T1, Protein RecA (Mycobacterium tuberculosis, UniProt P9WHJ3); assay: Fluorescence Cell-Free Homogeneous Dose Retest to Identify Inhibitors of RecA-Intein Splicing Activity. [Related pubchem assays (depositor defined):AID2097, AID2223, AID489010, AID492950]
T1 sequence (P9WHJ3 whole entry): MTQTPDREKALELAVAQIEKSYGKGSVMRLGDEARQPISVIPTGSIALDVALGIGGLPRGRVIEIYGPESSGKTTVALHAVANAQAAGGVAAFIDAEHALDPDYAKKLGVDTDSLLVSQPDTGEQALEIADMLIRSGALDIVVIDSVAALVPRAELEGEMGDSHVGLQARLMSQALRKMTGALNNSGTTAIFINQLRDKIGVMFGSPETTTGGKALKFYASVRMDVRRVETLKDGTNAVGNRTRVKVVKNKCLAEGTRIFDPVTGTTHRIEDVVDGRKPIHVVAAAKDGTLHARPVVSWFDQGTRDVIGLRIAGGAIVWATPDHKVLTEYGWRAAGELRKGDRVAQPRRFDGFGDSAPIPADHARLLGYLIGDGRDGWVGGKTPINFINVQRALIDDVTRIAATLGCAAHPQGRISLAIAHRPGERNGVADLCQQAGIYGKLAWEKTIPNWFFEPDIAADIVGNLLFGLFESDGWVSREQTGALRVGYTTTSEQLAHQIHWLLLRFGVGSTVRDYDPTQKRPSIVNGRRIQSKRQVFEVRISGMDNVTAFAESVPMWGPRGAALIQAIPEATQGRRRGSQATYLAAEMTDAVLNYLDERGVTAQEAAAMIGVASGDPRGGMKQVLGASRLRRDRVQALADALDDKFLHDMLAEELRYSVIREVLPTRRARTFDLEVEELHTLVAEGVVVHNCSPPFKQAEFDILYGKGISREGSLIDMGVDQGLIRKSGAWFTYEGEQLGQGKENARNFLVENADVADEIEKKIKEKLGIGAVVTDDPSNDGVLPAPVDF

[1] = target: Dual specificity mitogen-activated protein kinase kinase 1 (Homo sapiens, UniProt Q02750); assay: Navigating the Kinome. Panel member name: MAP2K1
[2] = target: T2, Serine/threonine-protein kinase D3 (Homo sapiens, UniProt O94806);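 further: determined within a kinase panel screen, with PRKCN as the panel member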
T2 sequence (O94806 whole entry): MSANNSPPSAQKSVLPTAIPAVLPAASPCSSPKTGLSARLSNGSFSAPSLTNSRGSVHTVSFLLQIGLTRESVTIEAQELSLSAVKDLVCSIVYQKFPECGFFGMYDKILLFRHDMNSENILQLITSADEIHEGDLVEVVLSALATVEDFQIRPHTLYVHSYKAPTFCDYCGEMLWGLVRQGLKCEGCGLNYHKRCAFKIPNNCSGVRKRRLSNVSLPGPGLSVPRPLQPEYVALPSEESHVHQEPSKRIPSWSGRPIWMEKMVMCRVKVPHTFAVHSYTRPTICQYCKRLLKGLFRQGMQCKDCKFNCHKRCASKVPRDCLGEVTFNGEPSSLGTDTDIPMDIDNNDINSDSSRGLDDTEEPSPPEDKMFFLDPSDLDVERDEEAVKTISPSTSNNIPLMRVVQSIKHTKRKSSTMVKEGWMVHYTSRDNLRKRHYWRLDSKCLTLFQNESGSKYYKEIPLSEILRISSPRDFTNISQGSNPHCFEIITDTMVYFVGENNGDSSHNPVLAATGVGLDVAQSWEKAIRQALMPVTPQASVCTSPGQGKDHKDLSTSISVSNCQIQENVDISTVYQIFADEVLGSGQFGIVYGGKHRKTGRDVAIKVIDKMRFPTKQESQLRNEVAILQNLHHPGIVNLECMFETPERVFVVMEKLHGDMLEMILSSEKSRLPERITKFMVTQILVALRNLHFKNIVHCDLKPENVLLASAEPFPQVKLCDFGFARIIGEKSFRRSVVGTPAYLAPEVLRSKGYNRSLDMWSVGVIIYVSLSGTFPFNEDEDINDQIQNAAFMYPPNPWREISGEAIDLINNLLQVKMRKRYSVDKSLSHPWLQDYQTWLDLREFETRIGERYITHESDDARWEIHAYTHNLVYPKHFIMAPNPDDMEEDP

[3] = target: Casein kinase I isoform alpha (Homo sapiens, UniProt P48729)
[4] = target: T3, Serine/threonine-protein kinase Chk1 (Homo sapiens, UniProt O14757);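 further: measured as one member of a kinome-wide kinase profiling panel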
T3 sequence (O14757 whole entry): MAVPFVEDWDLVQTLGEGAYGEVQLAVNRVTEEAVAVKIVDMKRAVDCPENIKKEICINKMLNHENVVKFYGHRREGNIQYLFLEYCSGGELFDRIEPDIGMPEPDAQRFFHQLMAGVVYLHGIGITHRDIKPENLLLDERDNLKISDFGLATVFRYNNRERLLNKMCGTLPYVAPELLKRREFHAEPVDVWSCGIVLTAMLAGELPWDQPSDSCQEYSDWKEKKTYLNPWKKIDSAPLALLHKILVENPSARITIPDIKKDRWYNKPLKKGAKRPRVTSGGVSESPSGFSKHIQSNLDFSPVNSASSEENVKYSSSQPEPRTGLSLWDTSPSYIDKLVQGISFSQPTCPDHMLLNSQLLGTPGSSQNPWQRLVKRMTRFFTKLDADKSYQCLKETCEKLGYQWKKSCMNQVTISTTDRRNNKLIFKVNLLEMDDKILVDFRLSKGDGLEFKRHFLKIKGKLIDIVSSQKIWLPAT

[5] = target: Vascular endothelial growth factor receptor 2 (Homo sapiens, UniProt P35968)
[6] = target: Death-associated protein kinase 3 (Homo sapiens, UniProt O43293);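 further: measured as one member of a kinome-wide profiling panel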
[7] = target: Fibroblast growth factor receptor 1 (Homo sapiens, UniProt P11362)
[8] = target: Serine/threonine-protein kinase pim-1 (Homo sapiens, UniProt P11309)
[9] = target: Serine/threonine-protein kinase pim-3 (Homo sapiens, UniProt Q86V86);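 further: value obtained as one member of a broad kinase panel profiling effort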

Chain of Serine/threonine-protein kinase pim-1 (P11309 whole entry): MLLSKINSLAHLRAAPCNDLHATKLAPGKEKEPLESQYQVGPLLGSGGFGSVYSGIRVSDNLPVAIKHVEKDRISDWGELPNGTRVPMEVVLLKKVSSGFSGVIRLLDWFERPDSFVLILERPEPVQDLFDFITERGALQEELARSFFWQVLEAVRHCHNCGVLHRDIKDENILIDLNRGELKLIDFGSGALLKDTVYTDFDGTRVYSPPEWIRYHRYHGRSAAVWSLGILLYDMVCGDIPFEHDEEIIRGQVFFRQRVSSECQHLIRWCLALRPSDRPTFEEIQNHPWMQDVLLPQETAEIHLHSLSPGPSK
Chain of Vascular endothelial growth factor receptor 2 (P35968 whole entry): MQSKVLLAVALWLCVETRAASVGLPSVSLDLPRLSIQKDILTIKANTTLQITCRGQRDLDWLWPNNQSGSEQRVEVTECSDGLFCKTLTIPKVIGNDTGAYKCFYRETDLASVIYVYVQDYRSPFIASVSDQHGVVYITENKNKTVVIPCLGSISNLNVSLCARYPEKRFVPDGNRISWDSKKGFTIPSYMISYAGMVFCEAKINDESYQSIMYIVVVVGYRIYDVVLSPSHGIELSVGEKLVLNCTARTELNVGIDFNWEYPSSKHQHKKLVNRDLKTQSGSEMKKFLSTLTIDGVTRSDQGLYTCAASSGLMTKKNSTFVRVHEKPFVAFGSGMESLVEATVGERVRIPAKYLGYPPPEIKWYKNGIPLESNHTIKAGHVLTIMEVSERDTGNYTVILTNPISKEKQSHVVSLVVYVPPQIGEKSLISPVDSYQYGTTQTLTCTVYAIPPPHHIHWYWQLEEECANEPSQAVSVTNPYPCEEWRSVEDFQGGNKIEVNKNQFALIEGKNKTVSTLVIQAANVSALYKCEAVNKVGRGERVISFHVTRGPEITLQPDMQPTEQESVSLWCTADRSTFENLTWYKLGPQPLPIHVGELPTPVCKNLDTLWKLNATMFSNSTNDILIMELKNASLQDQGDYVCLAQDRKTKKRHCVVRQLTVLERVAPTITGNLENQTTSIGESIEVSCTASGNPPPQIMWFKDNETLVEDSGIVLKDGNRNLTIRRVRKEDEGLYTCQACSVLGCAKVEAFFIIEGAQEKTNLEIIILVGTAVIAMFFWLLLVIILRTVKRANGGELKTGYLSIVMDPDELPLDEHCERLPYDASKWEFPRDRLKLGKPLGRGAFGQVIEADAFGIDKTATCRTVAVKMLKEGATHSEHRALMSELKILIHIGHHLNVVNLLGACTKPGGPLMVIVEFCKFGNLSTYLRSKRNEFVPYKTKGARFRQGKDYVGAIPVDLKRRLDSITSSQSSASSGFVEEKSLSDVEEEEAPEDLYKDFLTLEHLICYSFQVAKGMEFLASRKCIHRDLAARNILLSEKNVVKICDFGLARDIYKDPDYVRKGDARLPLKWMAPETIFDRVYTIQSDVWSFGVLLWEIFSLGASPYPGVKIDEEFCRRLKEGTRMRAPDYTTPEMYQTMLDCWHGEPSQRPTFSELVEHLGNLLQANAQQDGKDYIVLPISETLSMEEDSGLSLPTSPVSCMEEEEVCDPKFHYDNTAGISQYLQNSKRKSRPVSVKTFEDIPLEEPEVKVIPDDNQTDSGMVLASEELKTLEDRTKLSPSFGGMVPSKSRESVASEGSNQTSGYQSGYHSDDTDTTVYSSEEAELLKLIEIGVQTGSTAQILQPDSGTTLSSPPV
Chain of Dual specificity mitogen-activated protein kinase kinase 1 (Q02750 whole entry): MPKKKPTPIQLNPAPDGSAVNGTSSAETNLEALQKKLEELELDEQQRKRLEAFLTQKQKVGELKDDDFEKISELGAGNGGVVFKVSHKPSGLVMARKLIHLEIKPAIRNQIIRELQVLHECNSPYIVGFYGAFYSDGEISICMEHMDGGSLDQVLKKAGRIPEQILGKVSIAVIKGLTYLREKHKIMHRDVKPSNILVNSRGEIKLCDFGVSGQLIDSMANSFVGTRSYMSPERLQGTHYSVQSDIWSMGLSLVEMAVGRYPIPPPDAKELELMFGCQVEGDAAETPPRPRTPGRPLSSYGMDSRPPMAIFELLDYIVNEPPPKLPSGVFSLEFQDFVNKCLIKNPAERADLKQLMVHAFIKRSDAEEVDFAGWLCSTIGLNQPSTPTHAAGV
Chain of Fibroblast growth factor receptor 1 (P11362 whole entry): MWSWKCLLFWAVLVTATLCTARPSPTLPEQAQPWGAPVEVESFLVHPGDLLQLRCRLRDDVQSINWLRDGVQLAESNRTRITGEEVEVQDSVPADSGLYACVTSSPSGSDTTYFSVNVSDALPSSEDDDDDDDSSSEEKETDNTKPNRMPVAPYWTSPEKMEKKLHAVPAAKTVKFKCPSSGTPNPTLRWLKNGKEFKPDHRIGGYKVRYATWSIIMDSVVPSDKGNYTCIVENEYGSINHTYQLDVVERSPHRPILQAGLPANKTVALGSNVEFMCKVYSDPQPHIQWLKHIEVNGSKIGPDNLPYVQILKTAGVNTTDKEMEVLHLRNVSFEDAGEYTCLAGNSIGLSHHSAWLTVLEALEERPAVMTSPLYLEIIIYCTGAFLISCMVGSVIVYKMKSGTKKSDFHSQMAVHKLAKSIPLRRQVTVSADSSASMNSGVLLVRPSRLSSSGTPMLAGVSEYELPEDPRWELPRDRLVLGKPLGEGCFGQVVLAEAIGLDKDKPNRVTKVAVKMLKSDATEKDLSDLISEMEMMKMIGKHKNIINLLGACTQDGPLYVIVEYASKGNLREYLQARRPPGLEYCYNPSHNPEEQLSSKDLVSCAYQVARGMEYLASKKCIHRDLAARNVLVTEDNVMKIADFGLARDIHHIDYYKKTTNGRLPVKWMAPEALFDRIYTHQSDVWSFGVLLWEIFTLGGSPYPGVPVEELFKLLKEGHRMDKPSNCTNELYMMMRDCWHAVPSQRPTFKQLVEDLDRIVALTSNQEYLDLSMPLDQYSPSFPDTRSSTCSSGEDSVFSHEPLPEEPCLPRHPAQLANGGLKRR
Chain of Death-associated protein kinase 3 (O43293 whole entry): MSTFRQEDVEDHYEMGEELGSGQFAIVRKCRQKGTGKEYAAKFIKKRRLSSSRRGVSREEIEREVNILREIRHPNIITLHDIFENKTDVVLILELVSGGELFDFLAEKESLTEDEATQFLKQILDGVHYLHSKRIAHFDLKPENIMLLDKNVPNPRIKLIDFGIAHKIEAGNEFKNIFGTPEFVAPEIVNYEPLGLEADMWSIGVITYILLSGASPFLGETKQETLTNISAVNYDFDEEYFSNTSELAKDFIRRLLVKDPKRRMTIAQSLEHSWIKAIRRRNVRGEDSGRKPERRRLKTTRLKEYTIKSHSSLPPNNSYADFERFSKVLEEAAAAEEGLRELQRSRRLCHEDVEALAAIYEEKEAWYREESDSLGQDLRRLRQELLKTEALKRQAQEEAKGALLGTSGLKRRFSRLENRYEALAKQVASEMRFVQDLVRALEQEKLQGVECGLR
Chain of Casein kinase I isoform alpha (P48729 whole entry, canonical isoform): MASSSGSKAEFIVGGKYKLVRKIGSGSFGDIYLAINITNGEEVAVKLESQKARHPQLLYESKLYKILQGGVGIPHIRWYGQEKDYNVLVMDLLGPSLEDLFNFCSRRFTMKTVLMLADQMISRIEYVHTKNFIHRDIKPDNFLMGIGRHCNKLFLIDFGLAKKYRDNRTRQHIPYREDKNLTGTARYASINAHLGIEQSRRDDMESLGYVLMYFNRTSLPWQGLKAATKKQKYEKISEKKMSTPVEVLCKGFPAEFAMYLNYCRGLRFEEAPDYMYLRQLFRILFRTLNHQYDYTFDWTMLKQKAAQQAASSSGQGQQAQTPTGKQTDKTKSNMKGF

SMILES | EC50 (Protein RecA) | Ki [1] | Ki [2] | Ki [3] | Ki [4] | Ki [5] | Ki [6] | Ki [7] | Ki [8] | Ki [9]
COC(=O)CCS(=O)(=O)c1nc(-c2ccccc2)cc(C(F)(F)F)n1 | 4.56 µM (active) |  |  |  |  |  |  |  |  | 
O=C(O)c1ccc(NC2=C(Cl)C(=O)c3ccccc3C2=O)cc1 | 1.22 µM (active) |  |  |  |  |  |  |  |  | 
O=C(O)c1ccc2c3c(ncnc13)-c1ccccc1C2=O | 1.77 µM (active) |  |  |  |  |  |  |  |  | 
Cc1ccc2nccc(NC(=O)Nc3cccc(C(F)(F)F)n3)c2c1 |  | > 3.16 µM (inactive) | 1.26 µM (active) | > 5.01 µM (inactive) | > 7.94 µM (inactive) | > 2 µM (inactive) | > 1.26 µM (inactive) | > 3.98 µM (inactive) | > 3.16 µM (inactive) | 0.316 µM (active)
Cc1nn(C)c2sc3c(=O)[nH]cnc3c12 |  | 100 µM (active) | 39.8 µM (active) | 50.1 µM (active) | > 79.4 µM (inactive) | > 79.4 µM (inactive) | 50.1 µM (active) | > 50.1 µM (inactive) | 31.6 µM (active) | 2.51 µM (active)
Cc1c(/N=C2\C=CC(=O)c3ccccc32)c(=O)n(-c2ccccc2)n1C | 0.768 µM (active) |  |  |  |  |  |  |  |  | 
COc1cc2c(cc1F)C(c1ccccc1Cl)=Nc1c(n[nH]c1C)N2 [RG-1530] |  | 2 µM (active) | > 3.98 µM (inactive) | > 5.01 µM (inactive) | 0.501 µM (active) | 0.0126 µM (active) | > 1.26 µM (inactive) | 0.0501 µM (active) | > 5.01 µM (inactive) | > 7.94 µM (inactive)
